Measured values reported in US8039490B2, “Benzoyl-piperidine derivatives as dual modulators of the 5-HT2A and D3 receptors” (Hoffmann-La Roche Inc., priority 2006, dated 2011).
Values joined by “and” are separate entries in the source; they are usually repeats but may differ in a detail not shown here. Equal entries are not always repeated.

Experiments:
[1] = molecular target: T1, human D2 dopamine receptor (Homo sapiens, UniProt P14416); experiment: Radioligand binding, human D2 receptor ([3H]-spiperone); conditions: third value of the cell; membranes of transfected HEK-293 EBNA cells, 0.7 nM [3H]-spiperone; read-out: Ki(nM) D3/5HT2A/D2: D2
T1 construct: expressed in transfected cells; host or cells: HEK-293 EBNA cells (transient transfection), membrane preparation
T1 sequence (P14416 whole entry): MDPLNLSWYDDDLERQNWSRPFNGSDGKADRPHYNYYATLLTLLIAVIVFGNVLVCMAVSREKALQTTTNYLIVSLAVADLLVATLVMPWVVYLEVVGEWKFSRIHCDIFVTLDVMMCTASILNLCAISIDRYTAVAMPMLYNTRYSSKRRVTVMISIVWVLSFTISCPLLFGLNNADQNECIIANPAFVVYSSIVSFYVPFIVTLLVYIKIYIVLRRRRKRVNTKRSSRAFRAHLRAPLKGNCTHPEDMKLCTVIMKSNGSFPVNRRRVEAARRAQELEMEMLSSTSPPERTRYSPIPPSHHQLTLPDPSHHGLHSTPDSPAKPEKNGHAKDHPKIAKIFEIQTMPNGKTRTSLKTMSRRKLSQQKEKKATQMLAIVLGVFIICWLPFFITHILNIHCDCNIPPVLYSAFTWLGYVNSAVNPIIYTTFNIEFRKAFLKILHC
Method: (§1) The cells were harvested 48 h post-transfection, washed three times with cold PBS and stored at −80° C. prior to use. The pellet was suspended in cold 50 mM Tris-HCl buffer containing 10 mM EDTA (pH 7.4) and homogenized with a Polytron (Kinematica AG, Basel, Switzerland) for 20-30 sec at 12.000 rpm. After centrifugation at 48.000×g for 30 min at 4° C., the pellet was resuspended in cold 10 mM Tris-HCl buffer containing 0.1 mM EDTA (pH 7.4), homogenized, and centrifuged as above. This pellet was further resuspended in a smaller volume of ice cold 10 mM Tris-HCl buffer containing 0.1 mM EDTA (pH 7.4) and homogenized with a Polytron for 20-30 sec at 12.000 rpm. The protein content of this homogenate was determined with the Bio-Rad (Bradford) Protein Assay (Biorad Laboratories GmbH, München, Germany) according to the instructions of the manufacturer using gamma globulin as the standard. This homogenate was stored at −80° C. in aliquots and thawed immediately prior to use.
(§2) Aliquots of membrane preparations were thawed at RT, resupended in assay buffer (D2, D3: 50 mM Tris-HCl, 120 mM NaCl, 5 mM MgCl2, 1 mM EDTA, 5 mM KCl, 1.5 mM CaCl2, pH=7.4; 5-HT2A: 50 mM Tris-HCl, 10 mM MgCl2, 1 mM EGTA, pH=7.4), homogenized with a Polytron for 20-30 sec at 12.000 rpm and adjusted to a final concentration of approximately 7.5 μg protein/well (D2, D3) and 15 μg protein/well (5-HT2A), respectively.
(§3) The binding affinity (Ki) of the compounds was determined using radioligand binding. […] The nonspecific binding was determined with equally composed reaction mixtures in the presence of 10 μM unlabelled spiperone. Per well 45 μl of Microscint 40 (Perkin Elmer, Schwerzenbach, Switzerland) was added, plates for sealed, shaken for 20 min and counted for 3 min on a Topcount Microplate Scintillation Counter (Canberra Packard SA, Zürich, Switzerland) with quenching correction.
(§4) The CPM value for each duplicate of a concentration of competing compound was averaged (y1), then the % specific binding was calculated according to the equation (((y1−non-specific)/(total binding-non-specific))×100). Graphs were plotted with the % specific binding using XLfit, a curve fitting program that iteratively plots the data using Levenburg Marquardt algorithm. The single site competition analysis equation used was y=A+((B−A)/(+((x/C)^D))), where y is the % specific binding, A is the minimum y, B is the maximum y, C is the IC50, x is the log10 of the concentration of the competing compound and D is the slope of the curve (the Hill Coefficient). […] The affinity constant (Ki) was calculated using the Cheng-Prusoff equation KI =(IC50/1+([L]/Kd), where [L] is the concentration of radioligand and Kd is the dissociation constant of the radioligand at the receptor as determined by the saturation isotherm.

[2] = molecular target: T2, human D3 dopamine receptor (Homo sapiens, UniProt P35462); experiment: Radioligand binding, human D3 receptor ([3H]-spiperone); conditions: first value of the cell; membranes of transfected HEK-293 EBNA cells, 0.5 nM [3H]-spiperone; read-out: Ki(nM) D3/5HT2A/D2: D3
T2 construct: expressed in transfected cells; host or cells: HEK-293 EBNA cells (transient transfection), membrane preparation
T2 sequence (P35462 whole entry): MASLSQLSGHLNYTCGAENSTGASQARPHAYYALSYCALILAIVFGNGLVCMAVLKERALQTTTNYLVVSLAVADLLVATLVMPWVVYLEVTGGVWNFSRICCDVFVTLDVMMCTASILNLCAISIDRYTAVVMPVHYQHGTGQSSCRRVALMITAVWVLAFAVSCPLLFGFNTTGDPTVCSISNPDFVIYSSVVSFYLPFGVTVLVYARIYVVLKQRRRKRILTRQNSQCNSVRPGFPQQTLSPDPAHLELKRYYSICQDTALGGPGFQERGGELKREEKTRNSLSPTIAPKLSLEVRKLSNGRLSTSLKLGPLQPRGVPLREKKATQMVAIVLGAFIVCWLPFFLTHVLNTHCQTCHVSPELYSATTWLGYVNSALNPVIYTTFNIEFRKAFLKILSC
Method: as §1, §2, §3, §4

[3] = molecular target: T3, human 5-HT2A serotonin receptor (Homo sapiens, UniProt P28223); experiment: Radioligand binding, human 5-HT2A receptor ([3H]-ketanserin); conditions: second value of the cell; membranes of transfected HEK-293 EBNA cells, 1.1 nM [3H]-ketanserin; read-out: Ki(nM) D3/5HT2A/D2: 5HT2A
T3 construct: expressed in transfected cells; host or cells: HEK-293 EBNA cells (transient transfection), membrane preparation
T3 sequence (P28223 whole entry): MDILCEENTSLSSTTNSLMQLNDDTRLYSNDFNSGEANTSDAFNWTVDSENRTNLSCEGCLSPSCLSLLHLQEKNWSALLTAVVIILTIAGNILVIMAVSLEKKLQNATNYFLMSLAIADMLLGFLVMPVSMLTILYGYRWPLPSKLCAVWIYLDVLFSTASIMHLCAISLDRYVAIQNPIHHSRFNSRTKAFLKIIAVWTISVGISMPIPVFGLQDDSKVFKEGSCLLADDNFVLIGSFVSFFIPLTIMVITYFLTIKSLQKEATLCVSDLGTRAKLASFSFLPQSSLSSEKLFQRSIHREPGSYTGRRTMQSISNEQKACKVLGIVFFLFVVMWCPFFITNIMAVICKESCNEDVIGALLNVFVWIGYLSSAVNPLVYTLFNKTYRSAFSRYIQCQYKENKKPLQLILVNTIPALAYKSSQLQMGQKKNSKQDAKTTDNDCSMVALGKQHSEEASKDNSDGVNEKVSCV
Method: as §1, §2, §3, §4

| Molecule | Ki [1] | Ki [2] | Ki [3] |
| --- | --- | --- | --- |
| 1-(4-Ethoxy-phenyl)-3-{4-[4-(4-fluoro-benzoyl)-piperidin-1-yl]-butyl}-urea [Example 70] | 2710 nM | 97 nM | 22 nM |
| O=C(NC[C@@H]1C[C@H]1CN1CCC(C(=O)c2ccc(F)cc2)CC1)Nc1ccc(Cl)cc1 (relative stereo) [Example 46, 1-(4-Chloro-phenyl)-3-{Trans-2-[4-(4-fluoro-benzoyl)-piperidin-1-ylmethyl]-cyclopropylmethyl}-urea] | 30 nM | 15 nM | 2 nM |
| O=C(N[C@H]1CC[C@H](CCN2CCC(C(=O)c3ccc(F)cc3F)CC2)CC1)C1CCOC1 (relative stereo) [Example 61, Tetrahydro-furan-3-carboxylic acid trans (4-{2-[4-(2,4-difluoro-benzoyl)-piperidin-1-yl]-ethyl}-cyclohexyl)-amide] | 2900 nM | 35 nM | 64 nM |
| O=C(N[C@H]1CC[C@H](CCN2CCC(C(=O)c3ccc(F)cc3)CC2)CC1)c1ccc(-n2cccc2)cc1 [Example 9] | 106 nM | 6 nM | 2 nM |
| CC(C)(C(=O)N[C@H]1CC[C@H](CCN2CCC(C(=O)c3ccc(F)cc3)CC2)CC1)c1ccc(Cl)cc1 [Example 14, 2-(4-Chloro-phenyl)-N-trans (4-{2-[4-(4-fluoro-benzoyl)-piperidin-1-yl]-ethyl}-cyclohexyl)-isobutyramide] | 96 nM | 144 nM | 12 nM |
| O=C(N[C@H]1CC[C@H](CCN2CCC(C(=O)c3ccc(F)cc3)CC2)CC1)c1ccnc2ncccc12 [Example 20, [1,8]Naphthyridine-4-carboxylic acid trans-(4-{2-[4-(4-fluoro-benzoyl)-piperidin-1-yl]-ethyl}-cyclohexyl)-amide] | 586 nM | 18 nM | 5 nM |
| O=C(N[C@H]1CC[C@H](CCN2CCC(C(=O)c3ccc(F)cc3)CC2)CC1)c1ccc(Cl)cc1Cl [Example 22, 2,4-Dichloro-N-trans (4-{2-[4-(4-fluoro-benzoyl)-piperidin-1-yl]-ethyl}-cyclohexyl)-benzamide] | 149 nM | 15 nM | 4 nM |
| O=C(N[C@H]1CC[C@H](CCN2CCC(C(=O)c3ccc(F)cc3)CC2)CC1)c1ccc(S(=O)(=O)c2ccc(Cl)cc2)cc1 [Example 23, 4-(4-Chloro-benzenesulfonyl)-N-trans (4-{2-[4-(4-fluoro-benzoyl)-piperidin-1-yl]-ethyl}-cyclohexyl)-benzamide] | 73 nM | 72 nM | 5 nM |
| CCOCCC(=O)N[C@H]1CC[C@H](CCN2CCC(C(=O)c3ccc(F)cc3)CC2)CC1 [Example 25, 3-Ethoxy-N-trans (4-{2-[4-(4-fluoro-benzoyl)-piperidin-1-yl]-ethyl}-cyclohexyl)-propionamide] | 777 nM | 13 nM | 269 nM |
| O=C(CC(F)(F)F)N[C@H]1CC[C@H](CCN2CCC(C(=O)c3ccc(F)cc3)CC2)CC1 [Example 26, 3,3,3-Trifluoro-N-trans-(4-{2-[4-(4-fluoro-benzoyl)-piperidin-1-yl]-ethyl}-cyclohexyl)-propionamide] | 684 nM | 17 nM | 14 nM |
| O=C(N[C@H]1CC[C@H](CCN2CCC(C(=O)c3ccc(F)cc3)CC2)CC1)C1CCCCC1 [Example 29, Cyclohexanecarboxylic acid trans-(4-{2-[4-(4-fluoro-benzoyl)-piperidin-1-yl]-ethyl}-cyclohexyl)-amide] | 450 nM | 32 nM and 37 nM | 8 nM |
| O=C(N[C@H]1CC[C@H](CCN2CCC(C(=O)c3ccc(F)cc3)CC2)CC1)c1ccc(N2CCOCC2)nn1 [Example 30A25, 6-Morpholin-4-yl-pyridazine-3-carboxylic acid trans (4-{2-[4-(4-fluoro-benzoyl)-piperidin-1-yl]-ethyl}-cyclohexyl)-amide] | 1280 nM | 26 nM | 5 nM |
| O=C(CCOc1ccccc1)N[C@H]1CC[C@H](CCN2CCC(C(=O)c3ccc(F)cc3)CC2)CC1 [Example 30A27, N-trans (4-{2-[4-(4-Fluoro-benzoyl)-piperidin-1-yl]-ethyl}-cydohexyl)-3-phenoxy-propionamide] | 1120 nM | 8 nM | 8 nM |
| O=C(C#Cc1ccccc1)N[C@H]1CC[C@H](CCN2CCC(C(=O)c3ccc(F)cc3)CC2)CC1 [Example 30A28, 3-Phenyl-propynoic acid trans (4-{2-[4-(4-fluoro-benzoyl)-piperidin-1-yl]-ethyl}-cyclohexyl)-amide] | 470 nM | 9 nM | 5 nM |
| CC(C)(CO)C(=O)N[C@H]1CC[C@H](CCN2CCC(C(=O)c3ccc(F)cc3)CC2)CC1 [Example 30A29, N-trans (4-{2-[4-(4-Fluoro-benzoyl)-piperidin-1-yl]-ethyl}-cyclohexyl)-3-hydroxy-2,2-dimethyl-propionamide] | 1010 nM | 207 nM | 25 nM |
| Cc1cc(CC(=O)N[C@H]2CC[C@H](CCN3CCC(C(=O)c4ccc(F)cc4)CC3)CC2)on1 [Example 30A36] | 1280 nM | 26 nM | 5 nM |
| COc1cc(CC(=O)N[C@H]2CC[C@H](CCN3CCC(C(=O)c4ccc(F)cc4)CC3)CC2)cc(OC)c1 [Example 30A37, 2-(3,5-Dimethoxy-phenyl)-N-trans (4-{2-[4-(4-fluoro-benzoyl)-piperidin-1-yl]-ethyl}-cyclohexyl)-acetamide] | 2000 nM | 29 nM | 11 nM |
| CC(=O)OCC(=O)N[C@H]1CC[C@H](CCN2CCC(C(=O)c3ccc(F)cc3)CC2)CC1 [Example 30A58, Acetic acid trans (4-{2-[4-(4-fluoro-benzoyl)-piperidin-1-yl]-ethyl}-cyclohexylcarbamoyl)-methyl ester] | 2070 nM | 30 nM | 15 nM |
| O=C(c1ccc(F)cc1)C1CCN(CC[C@H]2CC[C@H](NC(=O)C3(O)CC3)CC2)CC1 [Example 30A59, 1-Hydroxy-cyclopropanecarboxylic acid (trans-4-{2-[4-(4-fluoro-benzoyl)-piperidin-1-yl]-ethyl}-cyclohexyl)-amide] | 888 nM | 19 nM | 5 nM |
| COC(=O)N[C@H]1CC[C@H](CCN2CCC(C(=O)c3ccc(F)cc3)CC2)CC1 [Example 30A64, Trans (4-{2-[4-(4-Fluoro-benzoyl)-piperidin-1-yl]-ethyl}-cyclohexyl)-carbamic acid methyl ester] | 625 nM | 19 nM | 13 nM |
| O=C(N[C@H]1CC[C@H](CCN2CCC(O)(C(=O)c3ccccc3)CC2)CC1)c1ccnc2ccccc12 [Example 33, Quinoline-4-carboxylic acid trans-{4-[2-(4-benzoyl-4-hydroxy-piperidin-1-yl)-ethyl]-cyclohexyl}-amide] | 1980 nM | 110 nM | 65 nM |
| O=C(N[C@H]1CC[C@H](CCN2CCC(F)(C(=O)c3ccccc3)CC2)CC1)c1ccnc2ccccc12 [Example 34, Quinoline-4-carboxylic acid trans-{4-[2-(4-benzoyl-4-fluoro-piperidin-1-yl)-ethyl]-cyclohexyl}-amide] | 192 nM | 23 nM | 6 nM |
| Cc1ccc(NC(=O)N[C@H]2CC[C@H](CCN3CCC(C(=O)c4ccc(F)cc4)CC3)CC2)cc1 [Example 41, Trans-1-(4-{2-[4-(4-Fluoro-benzoyl)-piperidin-1-yl]-ethyl}-cyclohexyl)-3-p-tolyl-urea] | 677 nM | 4 nM | 11 nM |
